ChEMBL document CHEMBL5303765, “Data for DCP probe BAY-7081” (2023)

Key:
[1] = target: 3',5'-cyclic-AMP phosphodiesterase 4D (Homo sapiens) (UniProt Q08499); assay: Panlabs assay PDE4D2; parameters: compound concentration 10 uM; details: at 10 µM
[2] = target: High affinity cAMP-specific and IBMX-insensitive 3',5'-cyclic phosphodiesterase 8A (Homo sapiens, UniProt O60658); assay: Panlabs assay PDE8A1; parameters: compound concentration 10 uM; details: at 10 µM
[3] = target: T1, Dual 3',5'-cyclic-AMP and -GMP phosphodiesterase 11A (Homo sapiens, UniProt Q9HCR9); assay: Panlabs assay PDE11A4; parameters: compound concentration 10 uM; details: at 10 µM
[4] = target: T2, Cytoplasmic tyrosine-protein kinase BMX (Homo sapiens) (UniProt P51813); assay: BMX SGC Tm panel (DSF); details: for ΔTm: Compound concentration 10.0 uM
T2 sequence (whole entry): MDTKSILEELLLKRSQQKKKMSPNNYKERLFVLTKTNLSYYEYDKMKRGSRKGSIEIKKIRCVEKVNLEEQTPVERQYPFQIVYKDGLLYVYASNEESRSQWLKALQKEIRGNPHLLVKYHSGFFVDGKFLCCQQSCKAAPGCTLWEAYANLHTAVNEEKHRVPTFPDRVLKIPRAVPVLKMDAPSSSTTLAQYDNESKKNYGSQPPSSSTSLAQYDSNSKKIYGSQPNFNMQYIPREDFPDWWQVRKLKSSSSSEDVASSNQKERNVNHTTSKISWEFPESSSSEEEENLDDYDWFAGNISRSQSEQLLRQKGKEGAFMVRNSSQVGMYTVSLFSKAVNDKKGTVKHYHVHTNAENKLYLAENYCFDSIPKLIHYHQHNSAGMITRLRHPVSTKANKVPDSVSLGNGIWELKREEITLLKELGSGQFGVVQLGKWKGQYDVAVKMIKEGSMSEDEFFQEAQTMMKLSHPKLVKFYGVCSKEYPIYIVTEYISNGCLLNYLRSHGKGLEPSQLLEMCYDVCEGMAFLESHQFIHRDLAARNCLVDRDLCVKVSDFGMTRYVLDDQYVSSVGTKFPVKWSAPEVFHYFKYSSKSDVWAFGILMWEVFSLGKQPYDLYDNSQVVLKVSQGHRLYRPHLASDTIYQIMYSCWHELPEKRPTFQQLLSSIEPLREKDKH

[5] = target: Serine/threonine-protein kinase OSR1 (Homo sapiens) (UniProt O95747); assay: OSR1 SGC Tm panel (DSF); details: for ΔTm: Compound concentration 10.0 uM
Serine/threonine-protein kinase OSR1 (Homo sapiens), sequence (O95747 2-527 limits assumed): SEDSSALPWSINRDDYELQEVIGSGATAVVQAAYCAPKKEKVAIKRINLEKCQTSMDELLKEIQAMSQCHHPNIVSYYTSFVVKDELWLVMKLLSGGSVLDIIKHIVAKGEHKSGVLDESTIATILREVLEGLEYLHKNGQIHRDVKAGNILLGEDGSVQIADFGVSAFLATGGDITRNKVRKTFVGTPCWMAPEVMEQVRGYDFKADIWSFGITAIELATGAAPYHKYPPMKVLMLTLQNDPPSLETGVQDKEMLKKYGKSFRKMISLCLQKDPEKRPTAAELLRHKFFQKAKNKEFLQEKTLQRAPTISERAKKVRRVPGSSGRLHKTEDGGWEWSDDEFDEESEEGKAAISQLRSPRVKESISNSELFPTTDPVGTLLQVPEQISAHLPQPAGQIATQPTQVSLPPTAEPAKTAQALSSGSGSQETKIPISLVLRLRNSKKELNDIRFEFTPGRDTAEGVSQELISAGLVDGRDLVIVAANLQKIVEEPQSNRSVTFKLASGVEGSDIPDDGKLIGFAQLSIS

[6] = target: Serine/threonine-protein kinase PAK 1 (Homo sapiens) (UniProt Q13153); assay: PAK1 SGC Tm panel (DSF); details: for ΔTm: Compound concentration 10.0 uM
Serine/threonine-protein kinase PAK 1 (Homo sapiens), sequence (Q13153 whole entry): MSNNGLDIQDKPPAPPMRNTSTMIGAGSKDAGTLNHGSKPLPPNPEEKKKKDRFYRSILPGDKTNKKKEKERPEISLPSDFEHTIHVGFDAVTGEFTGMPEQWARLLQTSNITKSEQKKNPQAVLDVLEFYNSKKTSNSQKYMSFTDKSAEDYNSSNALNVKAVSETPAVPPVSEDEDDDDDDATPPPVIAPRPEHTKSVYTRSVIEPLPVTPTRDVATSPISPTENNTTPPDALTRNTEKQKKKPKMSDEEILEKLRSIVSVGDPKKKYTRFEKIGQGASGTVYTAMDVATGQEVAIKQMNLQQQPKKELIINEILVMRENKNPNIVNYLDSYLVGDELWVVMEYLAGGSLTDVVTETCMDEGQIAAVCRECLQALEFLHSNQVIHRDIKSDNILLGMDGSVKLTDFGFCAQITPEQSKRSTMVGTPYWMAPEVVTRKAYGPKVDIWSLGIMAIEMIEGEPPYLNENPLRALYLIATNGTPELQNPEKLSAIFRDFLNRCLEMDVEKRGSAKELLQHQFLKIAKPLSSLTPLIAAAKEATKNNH

[7] = target: Serine/threonine-protein kinase pim-3 (Homo sapiens) (UniProt Q86V86); assay: PIM3 SGC Tm panel (DSF); details: for ΔTm: Compound concentration 10.0 uM
[8] = target: 5-hydroxytryptamine receptor 2B (Homo sapiens) (UniProt P41595); details: Compound concentration 10.0 uM
5-hydroxytryptamine receptor 2B (Homo sapiens), sequence (P41595 whole entry): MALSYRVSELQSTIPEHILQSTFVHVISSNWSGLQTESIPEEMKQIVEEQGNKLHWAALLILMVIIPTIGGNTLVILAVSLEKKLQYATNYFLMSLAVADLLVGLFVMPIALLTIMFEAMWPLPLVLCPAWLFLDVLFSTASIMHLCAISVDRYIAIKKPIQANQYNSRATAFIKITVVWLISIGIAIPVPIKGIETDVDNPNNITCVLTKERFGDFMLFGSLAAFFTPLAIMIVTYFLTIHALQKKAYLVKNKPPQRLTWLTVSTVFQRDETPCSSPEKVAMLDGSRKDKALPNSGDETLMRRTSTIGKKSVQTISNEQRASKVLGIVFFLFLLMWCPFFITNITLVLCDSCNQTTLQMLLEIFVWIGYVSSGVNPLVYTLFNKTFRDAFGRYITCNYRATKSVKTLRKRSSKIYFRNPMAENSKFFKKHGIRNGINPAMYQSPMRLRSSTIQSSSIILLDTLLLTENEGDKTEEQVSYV

[9] = target: cGMP-dependent 3',5'-cyclic phosphodiesterase (Homo sapiens, UniProt O00408); assay: 3H-cAMP and 3H-cGMP Scintillation Proximity Assay (PDE2A)
[10] = target: 3',5'-cyclic-AMP phosphodiesterase 4B (Homo sapiens, UniProt Q07343); assay: 3H-cAMP and 3H-cGMP Scintillation Proximity Assay (PDE4B)
[11] = target: cGMP-specific 3',5'-cyclic phosphodiesterase (Homo sapiens, UniProt O76074); assay: 3H-cAMP and 3H-cGMP Scintillation Proximity Assay (PDE5A)
[12] = target: T1, Dual 3',5'-cyclic-AMP and -GMP phosphodiesterase 11A; assay: 3H-cAMP and 3H-cGMP Scintillation Proximity Assay (PDE11A)
[13] = target: Sodium/potassium-transporting ATPase (Sus scrofa) (UniProt P05027+P05024+D2WKD8+D2WKD7+F1ST41); assay: ATPase, Na+/K+, Heart, Pig Eurofins Panlabs panel; format: protein-complex assay; details: Compound concentration 10.0 uM
[14] = target: Carbonic anhydrase 2 (Homo sapiens) (UniProt P00918); assay: Carbonic Anhydrase II Eurofins Panlabs panel; details: Compound concentration 10.0 uM
[15] = target: Polyunsaturated fatty acid lipoxygenase ALOX15 (Homo sapiens) (UniProt P16050); assay: Lipoxygenase 15-LO Eurofins Panlabs panel; details: Compound concentration 10.0 uM
Polyunsaturated fatty acid lipoxygenase ALOX15 (Homo sapiens), sequence (P16050 whole entry): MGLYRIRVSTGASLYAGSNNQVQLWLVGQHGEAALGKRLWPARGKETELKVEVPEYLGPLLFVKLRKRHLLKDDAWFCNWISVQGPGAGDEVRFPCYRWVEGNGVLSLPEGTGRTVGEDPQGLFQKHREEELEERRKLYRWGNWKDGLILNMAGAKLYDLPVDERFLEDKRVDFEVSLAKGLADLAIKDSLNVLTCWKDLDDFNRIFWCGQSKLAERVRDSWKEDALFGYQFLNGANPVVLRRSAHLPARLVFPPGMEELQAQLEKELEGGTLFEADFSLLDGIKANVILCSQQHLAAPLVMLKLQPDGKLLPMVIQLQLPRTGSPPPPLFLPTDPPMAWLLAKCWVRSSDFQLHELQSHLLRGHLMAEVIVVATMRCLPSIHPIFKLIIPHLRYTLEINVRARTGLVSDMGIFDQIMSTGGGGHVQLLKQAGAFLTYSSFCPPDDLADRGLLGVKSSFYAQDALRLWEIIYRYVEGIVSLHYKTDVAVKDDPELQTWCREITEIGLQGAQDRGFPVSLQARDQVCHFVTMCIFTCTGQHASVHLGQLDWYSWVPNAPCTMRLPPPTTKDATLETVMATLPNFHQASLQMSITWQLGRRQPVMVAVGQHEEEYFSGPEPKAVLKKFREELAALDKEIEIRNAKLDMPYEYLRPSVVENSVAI

[16] = target: Nitric oxide synthase 1 (Rattus norvegicus) (UniProt P29476); assay: Nitric Oxide Synthase, Neuronal (nNOS) Eurofins Panlabs panel; details: Compound concentration 10.0 uM
[17] = target: Adenosine receptor A1 (Homo sapiens) (UniProt P30542); assay: Adenosine A1 Eurofins Panlabs panel; details: Compound concentration 10.0 uM
[18] = target: Adenosine receptor A2a (Homo sapiens) (UniProt P29274); assay: Adenosine A2A Eurofins Panlabs panel; details: Compound concentration 10.0 uM
[19] = target: Beta-3 adrenergic receptor (Homo sapiens) (UniProt P13945); assay: Adrenergic beta3 Eurofins Panlabs panel; details: concentration not given here
[20] = target: Type-1 angiotensin II receptor (Homo sapiens) (UniProt P30556); assay: Angiotensin AT1 Eurofins Panlabs panel; details: Compound concentration 10.0 uM
Type-1 angiotensin II receptor (Homo sapiens), sequence (P30556 whole entry): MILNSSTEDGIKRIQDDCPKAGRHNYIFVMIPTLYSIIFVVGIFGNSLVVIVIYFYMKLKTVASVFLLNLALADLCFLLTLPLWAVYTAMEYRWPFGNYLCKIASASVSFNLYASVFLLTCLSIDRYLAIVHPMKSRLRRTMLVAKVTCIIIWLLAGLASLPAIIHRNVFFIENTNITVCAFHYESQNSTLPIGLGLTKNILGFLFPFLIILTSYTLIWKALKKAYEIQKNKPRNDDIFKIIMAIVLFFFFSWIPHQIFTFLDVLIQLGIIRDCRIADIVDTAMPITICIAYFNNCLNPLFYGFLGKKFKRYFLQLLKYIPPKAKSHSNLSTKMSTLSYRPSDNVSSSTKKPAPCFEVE

[21] = target: Type-2 angiotensin II receptor (Homo sapiens) (UniProt P50052); assay: Angiotensin AT2 Eurofins Panlabs panel; details: Compound concentration 10.0 uM
[22] = target: Glutamate receptor ionotropic, kainate (Rattus norvegicus) (UniProt P22756+Q01812+P42260+P42264+Q63273); assay: Glutamate, Kainate Eurofins Panlabs panel; format: protein-complex assay; details: Compound concentration 10.0 uM
[23] = target: Insulin receptor (Rattus norvegicus) (UniProt P15127); assay: Insulin Eurofins Panlabs panel; details: Compound concentration 10.0 uM
[24] = target: Kappa-type opioid receptor (Homo sapiens) (UniProt P41145); assay: Opiate kappa(OP2, KOP) Eurofins Panlabs panel; details: Compound concentration 10.0 uM
Mu-type opioid receptor = Mu-type opioid receptor (Homo sapiens, UniProt P35372); assay: Opiate ??(OP3, MOP) Eurofins Panlabs panel; details: Compound concentration 10.0 uM
[25] = target: P2X receptor (Rattus norvegicus) (UniProt P51579+P49653+P51578+Q64663+P47824+P51577+P49654); assay: Purinergic P2X Eurofins Panlabs panel; format: protein assay; details: concentration not given here
[26] = target: Sodium-dependent serotonin transporter (Homo sapiens) (UniProt P31645); assay: Transporter, Serotonin (5-Hydroxytryptamine) (SERT) Eurofins Panlabs panel; details: Compound concentration 10.0 uM
[27] = target: L-type calcium channel, dihydropyridine site (Rattus norvegicus, UniProt P22002+P27732+Q02485); assay: Calcium Channel L-Type, Dihydropyridine Eurofins Panlabs panel; format: protein assay; details: compound concentration 10 uM
[28] = target: Epidermal growth factor receptor (Homo sapiens) (UniProt P00533); assay: Protein Tyrosine Kinase, EGF Receptor Eurofins Panlabs panel; details: Compound concentration 10.0 uM
Epidermal growth factor receptor (Homo sapiens), sequence (P00533 whole entry): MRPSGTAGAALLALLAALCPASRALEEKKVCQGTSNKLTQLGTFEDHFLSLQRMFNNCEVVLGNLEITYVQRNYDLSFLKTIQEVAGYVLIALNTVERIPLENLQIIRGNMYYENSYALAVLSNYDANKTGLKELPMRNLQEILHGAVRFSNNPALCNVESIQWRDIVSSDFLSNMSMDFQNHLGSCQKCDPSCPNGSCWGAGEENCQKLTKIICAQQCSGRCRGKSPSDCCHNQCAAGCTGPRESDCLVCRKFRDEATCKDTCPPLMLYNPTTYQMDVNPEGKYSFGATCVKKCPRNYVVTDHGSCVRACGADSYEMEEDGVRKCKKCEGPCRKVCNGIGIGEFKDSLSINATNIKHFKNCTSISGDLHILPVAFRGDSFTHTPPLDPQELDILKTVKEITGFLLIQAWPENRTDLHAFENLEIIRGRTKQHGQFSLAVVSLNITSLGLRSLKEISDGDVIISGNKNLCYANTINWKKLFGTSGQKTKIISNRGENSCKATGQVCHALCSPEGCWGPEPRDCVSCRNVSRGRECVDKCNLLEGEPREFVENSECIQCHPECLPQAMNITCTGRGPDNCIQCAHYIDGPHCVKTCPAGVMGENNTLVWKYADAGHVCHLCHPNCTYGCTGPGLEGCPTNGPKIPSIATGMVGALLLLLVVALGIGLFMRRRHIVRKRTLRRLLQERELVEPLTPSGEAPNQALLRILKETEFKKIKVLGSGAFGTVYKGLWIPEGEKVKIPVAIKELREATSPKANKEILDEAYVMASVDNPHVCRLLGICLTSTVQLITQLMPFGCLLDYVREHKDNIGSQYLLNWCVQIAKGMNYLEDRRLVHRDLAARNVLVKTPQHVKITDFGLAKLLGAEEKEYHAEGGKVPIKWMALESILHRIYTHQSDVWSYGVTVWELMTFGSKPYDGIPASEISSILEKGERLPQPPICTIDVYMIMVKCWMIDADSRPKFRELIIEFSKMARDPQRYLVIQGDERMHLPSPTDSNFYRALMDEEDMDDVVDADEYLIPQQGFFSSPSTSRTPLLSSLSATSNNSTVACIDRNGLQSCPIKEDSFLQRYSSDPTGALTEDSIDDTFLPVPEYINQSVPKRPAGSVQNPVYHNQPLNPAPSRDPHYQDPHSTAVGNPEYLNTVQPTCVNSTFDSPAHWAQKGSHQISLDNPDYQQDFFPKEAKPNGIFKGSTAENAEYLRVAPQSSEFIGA

3',5'-cyclic-AMP phosphodiesterase 4D (Homo sapiens), sequence (Q08499 whole entry): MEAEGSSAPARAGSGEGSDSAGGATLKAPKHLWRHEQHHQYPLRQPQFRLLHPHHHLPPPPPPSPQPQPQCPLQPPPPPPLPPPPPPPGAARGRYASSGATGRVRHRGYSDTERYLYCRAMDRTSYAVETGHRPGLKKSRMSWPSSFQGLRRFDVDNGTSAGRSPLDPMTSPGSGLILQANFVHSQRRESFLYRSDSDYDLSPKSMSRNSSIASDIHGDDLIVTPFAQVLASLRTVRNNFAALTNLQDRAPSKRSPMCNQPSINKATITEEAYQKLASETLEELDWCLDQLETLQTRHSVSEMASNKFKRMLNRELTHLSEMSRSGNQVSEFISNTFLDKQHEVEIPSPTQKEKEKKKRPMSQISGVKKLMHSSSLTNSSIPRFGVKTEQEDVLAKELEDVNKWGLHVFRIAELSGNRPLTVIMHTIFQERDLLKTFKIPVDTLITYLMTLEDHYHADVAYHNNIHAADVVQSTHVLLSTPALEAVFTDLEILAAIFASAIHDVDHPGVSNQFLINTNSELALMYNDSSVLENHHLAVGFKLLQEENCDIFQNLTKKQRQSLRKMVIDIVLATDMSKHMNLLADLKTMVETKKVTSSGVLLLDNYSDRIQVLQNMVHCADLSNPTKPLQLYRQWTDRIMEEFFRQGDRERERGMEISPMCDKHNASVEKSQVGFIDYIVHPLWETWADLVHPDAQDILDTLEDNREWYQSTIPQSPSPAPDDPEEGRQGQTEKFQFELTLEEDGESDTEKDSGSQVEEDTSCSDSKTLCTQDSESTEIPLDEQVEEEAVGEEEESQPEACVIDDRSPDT

Structure (SMILES): CCC[C@@H]1CNCc2c1[nH]c(=O)c(C#N)c2N1CCC2(CC1)CC2
- inhibition [1]: 19.1%
- inhibition [2]: 2.9%
- inhibition [3]: 1.3%
- delta Tm Staurosporine positive control [4]: 7.31
- ΔTm [4]: -0.292
- delta Tm Staurosporine positive control [5]: 8.41
- ΔTm [5]: 0.204
- delta Tm Staurosporine positive control [6]: 7.21
- ΔTm [6]: -0.679
- delta Tm Staurosporine positive control [7]: 16.7
- ΔTm [7]: -0.32
- inhibition [8]: 33%

Structure (SMILES): CCC[C@H]1CNCc2c1[nH]c(=O)c(C#N)c2N1CCC2(CC1)CC2
- IC50 [9]: > 10 µM (not active)
- IC50 [10]: 3.96 µM (not active)
- IC50 [11]: 2.98 µM (not active)
- IC50 [12]: 6.6 µM (not active)
- inhibition [13]: -1%
- inhibition [14]: -7.5%
- inhibition [15]: -6%
- inhibition [16]: -2%
- inhibition [17]: 16%
- inhibition [18]: 2%
- inhibition [19]: 0%
- inhibition [20]: 5%
- inhibition [21]: 3%
- inhibition [22]: -0.5%
- inhibition [23]: 10%
- inhibition [24]: 24.2%
- inhibition (Mu-type opioid receptor): 18.4%
- inhibition [25]: 0%
- inhibition [26]: 3.5%
- inhibition at 10 µM [27]: 29%
- inhibition [28]: 9%
- delta Tm Staurosporine positive control [4]: 7.31
- ΔTm [4]: -0.224
- delta Tm Staurosporine positive control [5]: 8.41
- ΔTm [5]: -0.0871
- delta Tm Staurosporine positive control [6]: 7.21
- ΔTm [6]: -0.68
- delta Tm Staurosporine positive control [7]: 16.7
- ΔTm [7]: -0.159
- inhibition [8]: 44.9%
